Reference: ChEMBL document CHEMBL4145603, “Iridoids from the Roots of Patrinia scabra and Their Inhibitory Potential on LPS-Induced Nitric Oxide Production” (J Nat Prod, 2018)

Test system: RAW264.7
Test: Inhibition of LPS-stimulated nitric oxide production in […] RAW264.7 cells after 24 hrs by Griess assay
Format: functional, cell-based
Settings: Mus musculus; for IC50: RAW264.7, 24 h

| SMILES | IC50 | inhibition |
| --- | --- | --- |
| CC(C)CC(=O)OCC1=COC=C2C1=CC(=O)[C@]2(O)COC(=O)CC(C)C | 17.1 µM | Dose-dependent effect |
| CC(C)CC(=O)OCC1=COC=C2C1=CC(=O)[C@]2(O)CCl | 27.6 µM |  |
| CC(C)CC(=O)OCC1=CO[C@@H](OC(=O)CC(C)C)[C@H]2C1=C[C@H](O)[C@]2(O)CO | > 50 µM |  |
| COc1cc([C@@H](O)[C@@H](COC(=O)CC(C)C)Oc2c(O)cc(/C=C/COC(=O)CC(C)C)cc2OC)cc(OC)c1O | 17.8 µM | Dose-dependent effect |

Now from value to compound, other results behind:

| IC50 | SMILES | inhibition |
| --- | --- | --- |
| 14.7 µM | CC(C)CC(=O)OCC1=CO[C@H](OC(=O)CC(C)C)[C@H]2C1(O)C[C@@H](O)[C@]2(O)COC(=O)CC(C)C (some centres undefined) | Dose-dependent effect |
| 26 µM | CC(C)CC(=O)OCC1=CO[C@H](OC(=O)CC(C)C)[C@@H]2[C@@](O)(COC(=O)CC(C)C)[C@H](O)C[C@]12O |  |
